These results are taken from patent EP3301096A1, “BIS-INDOLE DERIVATIVES FOR USE IN THE TREATMENT OF BACTERIAL INFECTIONS” (Heinrich Heine Universität Düsseldorf, priority 2016, dated 2018).

One series relates to M. tuberculosis H37Rv. The series can be described thus: MIC determination, resazurin microplate assay. In kind it is cell-based. The settings on record: Mycobacterium tuberculosis, 120 h, five days, range 100-0.78 µM. (Alamar Blue is a resazurin reagent that responds to reducing activity.)
Series [1] relates to methicillin-resistant Staphylococcus aureus. The series can be described thus: MIC quantified via the BacTiter-Glo assay. In kind it is cell-based. As to conditions: methicillin-resistant strain; 24 h. On the procedure: (§1) The MICs of compounds according to formulas (2), (3), (4), (7), (11), (12) and (18) were additionally quantified via the BacTiter-Glo™ assay (Promega, Madison, WI, USA). Briefly, after an incubation time of 24 h, each well was resuspended by pipetting, and 50 µL aliquots were transferred into an opaque-walled multiwell plate. Additionally, control wells containing medium without cells to determine background luminescence were prepared. 50 µL BacTiter-Glo™ reagent were added to each well. Contents were mixed and incubated for five minutes at room temperature. Luminescence was measured using a microplate reader. Growth was calculated relative to the background luminescence (0% growth) and a compound-free DMSO control (100% growth).

The test system of series [2] is methicillin-sensitive Staphylococcus aureus. The series can be described thus: MIC quantified via the BacTiter-Glo assay. In kind it is cell-based. The settings on record: methicillin-sensitive strain; 24 h. On the procedure: as §1
The test system of series [3] is human fetal lung fibroblast cell line MRC-5. As to the kind of experiment: Cytotoxicity, resazurin assay. In kind it is cell-based. As to conditions: MRC-5 cells, 48 h. On the procedure:
(§2) The cytotoxicity of the compounds according to formulas (2), (3) and (4) and according to formulas (7), (11), (12) and (18) was determined in vitro using the human monocyte cell line THP-1 (Deutsche Sammlung von Mikroorganismen und Zellkulturen GmbH) and the human fetal lung fibroblast cell line MRC-5 (American Type Culture Collection).
(§3) THP-1 cells were cultured in RPMI 1640 medium containing 10% (v/v) fetal bovine serum (FBS), while MRC-5 cells were incubated in Dulbecco's Modified Eagles Medium (DMEM) containing 10% (v/v) FBS both at 37°C in a humidified atmosphere of 5% CO2. […] Cells treated with DMSO in a final concentration of 1% (v/v) served as DMSO toxicity controls. After an incubation time of 48 h, 10 µL resazurin solution (100 µg/mL) were added per well and incubated for further 3 h at 37°C in a humidified atmosphere of 5% CO2. Fluorescence was quantified using a microplate reader (excitation 540 nm, emission 590 nm). Growth was calculated relative to non-inoculated (i.e. cell-free) (0% growth) and untreated (100% growth) controls in triplicate experiments, respectively. For determination of the therapeutic index of the tested substances, the selectivity index (SI) was determined by the quotient of cytotoxic concentration and MIC. Compounds with SI ≥ 10 were characterized in further experiments.

Series [4] has as its system human monocyte cell line THP-1. As to the kind of experiment: Cytotoxicity, resazurin assay. In kind it is cell-based. The settings on record: THP-1 cells, 48 h. On the procedure:
as §2, §3

Series [5] deals with Staphylococcus aureus MRSA strain ATCC 700699. As to the kind of experiment: Time-kill curves in vitro (killing kinetics). Format: cell-based. As to conditions: for bacteria amount: after 6 h at five-fold MIC, inoculum 10^6 CFU/mL; for killing effect: five-fold MIC.
Series [6] relates to methicillin-resistant S. aureus (MRSA) strain ATCC 700699. The series can be described thus: Frequency of spontaneous resistant mutants on compound-containing agar. Format: cell-based, Staphylococcus aureus. As to conditions: agar with 3- and 5-fold MIC, 72 h, 37°C.
The next series has as its system resistant MRSA mutants. The series can be described thus: Level of resistance of isolated resistant mutants (dose-response). Format: cell-based, Staphylococcus aureus.
For another series, the system named is S. aureus ATCC 25923. As to the kind of experiment: MIC by broth microdilution method (CLSI). As to conditions: Staphylococcus aureus, ATCC25923, 24 h. Background: Broth dilution looks for growth in wells or tubes with falling amounts of substance.
The next series has as its system MRSA ATCC 700699. As to the kind of experiment: MIC by broth microdilution method (CLSI). The settings on record: for MIC: Staphylococcus aureus, 24 h.
Another series has as its system E. faecalis ATCC 29212. The series can be described thus: MIC by broth microdilution method (CLSI). As to conditions: Enterococcus faecalis, ATCC29212, 24 h.
The test system of another series is E. faecalis ATCC 51299. The series can be described thus: MIC by broth microdilution method (CLSI). As to conditions: Enterococcus faecalis, ATCC51299, 24 h.
Another series concerns E. faecium ATCC 35667. As to the kind of experiment: MIC by broth microdilution method (CLSI). The settings on record: Enterococcus faecium, ATCC35667, 24 h.
In series [7] the test system is VR E. faecium ATCC 700221. As to the kind of experiment: MIC by broth microdilution method (CLSI). As to conditions: Enterococcus faecium, ATCC700221, 24 h.
Procedure: (§4) The compounds were tested for their antibacterial activities against the pathogenic nosocomial strains of Staphylococcus aureus, Enterococcus faecalis Enterococcus faecium, Acinetobacter baumannii. The minimal inhibitory concentration (MIC) was determined by the broth microdilution method according to the recommendations of the Clinical and Laboratory Standards Institute (CLSI) (CLSI M7-A9, 2012). For preparation of the inoculum the growth method was used. Bacterial cells were grown aerobically in Muller Hinton (MH) medium at 37°C and 180 rpm. A preculture was grown until log phase (OD600 nm ∼ 0.5) and then seeded at 5 x 10^4 bacteria/well in a total volume of 100 µL in 96 well round bottom microtiter plates and incubated with serially diluted test substances at a concentration range of 100-0.78 µM. The compounds were screened in two-fold serial dilution. Microplates were incubated aerobically at 37°C for 24 h. MICs were determined by identifying the minimum concentration of the compounds that led to complete inhibition of visual growth of the bacteria.
Series [8] concerns Methicillin resistant S. aureus (MRSA; ATCC 700699). As to the kind of experiment: Resistance development during time-kill kinetics. The settings on record: after 6 and 24 h of incubation, plated on agar with 5x MIC. Format: cell-based, Staphylococcus aureus. On the procedure:
Additionally, the resistance rate of the cultures was determined after 6 and 24 h of incubation. For this, 20 µL of the cultures were plated on 1 mL MH agar containing the five-fold MIC of the compounds (for the compound according to formula (2) and (4): 2 µM, for the compound according to formula (3): 8 µM). After an incubation time of 24 h at 37°C, the colonies were counted. The resistance rate was determined as quotient of the number of resistant colonies on compound containing agar and the total amount of viable bacteria at the corresponding time points.
Two independent cultures C1 and C2 were tested for each attempt. Compounds were tested at 5x MIC resulting in 0.02-0.08% DMSO final concentration. In an independent experiment, medium was replaced and compounds were freshly added after 6 h, denoted "freshly added" in the Figure. 20 µL of different dilution of the cultures after either 6 or 24 h of incubation were plated out on MH agar containing either no antibiotics, which is denoted (*) or the compounds of formulas (2) and (3) at 5x MIC, respectively.

Procedure for E. faecalis ATCC 29212: as §4
Procedure for E. faecalis ATCC 51299: as §4
Procedure for E. faecium ATCC 35667: as §4
Procedure for MRSA ATCC 700699: as §4
Procedure for S. aureus ATCC 25923: as §4

A word on the MIC: it is the least concentration at which growth counts as inhibited. High values mean a less susceptible organism, low ones a more susceptible organism. Regarding `Clc1ccc2[nH]cc(-c3cnc(-c4c[nH]c5ccc(Cl)cc45)nc3)c2c1` [formula (4), 3,3'-(pyrimidine-2,5-diyl)bis(5-chloro-1H-indole)], the minimum inhibitory concentration (MIC) amounted to 50 µM against M. tuberculosis H37Rv; 6.25 µM with S. aureus ATCC 25923; 0.39 µM in the series on MRSA ATCC 700699; 3.12 µM against E. faecalis ATCC 29212; 12.5 µM with E. faecalis ATCC 51299; 1.56 µM against E. faecium ATCC 35667. In [7], the minimal inhibitory concentration (MIC) was determined as 1.56 µM. Also, the “inhibition of Staphylococcus aureus (BacTiter-Glo)” value (from here on “inhibition of Staphylococcus aureus”) in [1] and in series [2] was “effectively inhibited” in each case. Also, the “cytotoxic (inhibitory) concentration” value in series [3] and in series [4] was above 12.5 µM in each case. Besides, the bacteria amount in series [5] is < 10^1 CFU/mL. For the same compound, in [5] (after 24 h at five-fold MIC, limit of detection 10^1), the “amount of surviving bacteria” value is < 10^1 CFU/mL. The killing effect entry in series [5] is reported as “strong bactericidal killing effect”. Moreover, the “frequency of spontaneous resistant mutants” value in [6] is given as 5×10^-5. Also, in the series on resistant MRSA mutants (mutants 9-RM, 1-RM, 9-RM-5x versus MRSA WT), the “MIC for the mutants relative to the parent MRSA strain” value is recorded as 8 fold. The “resistance of clones resistant against formula (2) towards the tested compound” value in the series on resistant MRSA mutants (two tested clones (1-RM)) is “showed cross-resistance”.
For the compound `Clc1ccc2[nH]cc(-c3cnc(-c4c[nH]c5ccc(Cl)cc45)cn3)c2c1` [formula (2), 2,5-bis(5-chloro-1H-indole-3-yl)pyrazine], the minimal inhibitory concentration (MIC) was above 100 µM in the series on M. tuberculosis H37Rv; above 100 µM against S. aureus ATCC 25923; 0.39 µM in the series with MRSA ATCC 700699; above 100 µM against E. faecalis ATCC 29212; above 100 µM against E. faecalis ATCC 51299; above 100 µM against E. faecium ATCC 35667. In [7], this compound came in with an MIC above 100 µM. Also, the “inhibition of Staphylococcus aureus” value in series [1] and in series [2] was “effectively inhibited” throughout. Also, the “cytotoxic (inhibitory) concentration” value in series [3] and in series [4] was 12.5 µM throughout. For the same compound, the bacteria amount in [5] is 10^4 CFU/mL. Besides, in [5] (compound freshly added to washed cells after 6 h, initial further decrease), the “viability of the culture” value is reported as 10^2 CFU/mL. Further, the killing effect entry in series [5] was “strong bactericidal killing effect”. Further, in [8], the “level of resistance in treated cultures” value was “no significant level of resistance was detectable”. For the same compound, the “frequency of spontaneous resistant mutants” value in [6] is reported as 5×10^-7. Besides, in the series on MRSA ATCC 700699 (paradoxical effect, assumed aggregation and precipitation), the “concentrations at which a decreased inhibitory effect could be observed” value is listed as at least 3.125 µM.
Regarding `Brc1ccc2[nH]cc(-c3cnc(-c4c[nH]c5ccc(Br)cc45)cn3)c2c1` [formula (3), 2,5-bis(5-bromo-1H-indole-3-yl)pyrazine], the MIC against M. tuberculosis H37Rv is above 100 µM; against S. aureus ATCC 25923, 1.56 µM; against MRSA ATCC 700699 it was 1.56 µM; with E. faecalis ATCC 29212, above 100 µM; in the series on E. faecalis ATCC 51299, above 100 µM; in the series on E. faecium ATCC 35667 it was above 100 µM. Moreover, in [7], the minimal inhibitory concentration (MIC) is above 100 µM. In addition, the “inhibition of Staphylococcus aureus” value in [1] and in [2] was “effectively inhibited” in each case. Further, the “cytotoxic (inhibitory) concentration” value in series [3] and in series [4] was 12.5 µM each time. Also, the bacteria amount in series [5] was 10^2 CFU/mL. For the same compound, the killing effect entry in series [5] is “strong bactericidal killing effect”. The “level of resistance in treated cultures” value in series [8] is “no significant level of resistance was detectable”.
